Laboratory results from US12685781B2, “Anti-HER3 antibody-drug conjugate” (DAIICHI SANKYO COMPANY, LIMITED, priority 2014, dated 2026).

What was measured:
[1] = Stability of released drug derivative; assay type: physicochemical; conditions: self-degradation to release HO—CH2—C(═O)—(NH-DX)
Text: Meanwhile, in case of NH2—CH2—O—CH2—C(═O)—(NH-DX), it was confirmed that, as the aminal structure in the molecule is unstable, it again undergoes a self-degradation to release the following HO—CH2—C(═O)—(NH-DX). Those compounds can be also preferably used as a production intermediate of the antibody-drug conjugate of the present invention.

topoisomerase I = target: T1, topoisomerase I (Homo sapiens, UniProt P11387); conditions: cited from earlier work
T1 sequence (P11387 1-765): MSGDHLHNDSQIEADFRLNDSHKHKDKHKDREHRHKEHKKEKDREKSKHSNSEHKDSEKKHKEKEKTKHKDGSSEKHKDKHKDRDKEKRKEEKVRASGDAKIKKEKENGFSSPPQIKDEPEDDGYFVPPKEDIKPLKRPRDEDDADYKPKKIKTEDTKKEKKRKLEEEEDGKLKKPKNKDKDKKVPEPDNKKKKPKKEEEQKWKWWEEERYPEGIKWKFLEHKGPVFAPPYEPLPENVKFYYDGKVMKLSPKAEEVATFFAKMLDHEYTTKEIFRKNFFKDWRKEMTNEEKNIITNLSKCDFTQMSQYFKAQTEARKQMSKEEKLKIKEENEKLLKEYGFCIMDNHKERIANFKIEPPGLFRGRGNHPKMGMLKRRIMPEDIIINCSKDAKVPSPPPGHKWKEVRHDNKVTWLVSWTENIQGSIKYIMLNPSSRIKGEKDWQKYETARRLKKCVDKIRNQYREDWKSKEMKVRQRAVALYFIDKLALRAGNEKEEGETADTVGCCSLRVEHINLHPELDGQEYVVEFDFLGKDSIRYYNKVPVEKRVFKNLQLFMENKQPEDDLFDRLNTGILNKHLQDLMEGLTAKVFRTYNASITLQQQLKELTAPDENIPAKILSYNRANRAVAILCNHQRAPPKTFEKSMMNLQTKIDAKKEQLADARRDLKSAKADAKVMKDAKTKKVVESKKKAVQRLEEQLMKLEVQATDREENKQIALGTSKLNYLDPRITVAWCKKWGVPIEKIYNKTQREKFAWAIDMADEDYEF

human tumor = human tumor subcutaneously transplanted; cited from earlier work
various cancer cells = conditions: cited from earlier work

Row | SMILES | stability of the aminal structure in the molecule [1] | inhibitory activity on topoisomerase I compared to SN-38 and topotecan (topoisomerase I) | antitumor effect (human tumor) | cytocidal activity in vitro compared to SN-38 and topotecan (various cancer cells)
1 | CC[C@@]1(O)C(=O)OCc2c1cc1n(c2=O)Cc2c-1nc1cc(F)c(C)c3c1c2[C@@H](NC(=O)COCN)CC3 [NH2—CH2—O—CH2—C(═O)—(NH-DX)] | unstable |  |  | 
2 | CC[C@@]1(O)C(=O)OCc2c1cc1n(c2=O)Cc2c-1nc1cc(F)c(C)c3c1c2[C@@H](N)CC3 [exatecan, (1S,9S)-1-amino-9-ethyl-5-fluoro-2,3-dihydro-9-hydroxy-4-methyl-1H,12H-benzo[de]pyrano[3′,4′:6,7]indolizino[1,2-b]quinolin-10,13(9H,15H)-dione] |  | higher inhibitory activity | potent antitumor effect | higher cytocidal activity
